# Measured values reported in US11679123B2, “N-acylated hyaluronic acid for hyperuricemia and gouty arthritis” (Queen's University at Kingston, priority 2018, dated 2023).
# How the values were obtained:
# inflammation factors = assay: Serum inflammation factors by ELISA in rats with MSU-induced acute gout; format: in vivo, Wistar rats; conditions: for 6-Keto-PGF1α / IFN-γ / IL-1α / IL-1β / IL-6 / IL-8 / IL-10 / IL-16 / IP-10 / MCP-1 / MIP-1α / NF-κB / PGE2 / TNF-α / TNF-β: serum, MSU-induced acute gout rats, mean ± S.D., n=10
# Description: An experimental model of MSU-induced gouty arthritis was used in order to evaluate the anti-inflammatory activities of BHA. Rats were randomly divided into five groups (n=10), include a control group (NC), a model group (MC), a 0.3 mg/kg colchicine group (COL), a 10 μg BHA group (10BHA) and a 50 μg BHA group (50BHA). MSU crystals were suspended in 0.9% sterile saline (30 mg/mL) prior to use. The colchicine group rats were orally administrated colchicine (0.3 mg/kg) for 8 days, and all rats except for the control group were injected with 3 mg of MSU (Sigma, USA) at the 6th day into the right ankle synovial space 1 h after gavage feeding. Meanwhile a turbid sample of MSU mixed with 100 μg of BHA or 500 μg of BHA per mL of solution for 10BHA rats or 50BHA rats. At the 8th day, 1 h after the administration of the final agents, blood was sampled from the caudal veins of the rats and the right ankle joints of the rats were collected and fixed in 4% paraformaldehyde. Serum was separated and stored at −80° C. prior to analysis (FIG. 2A, E).
# The serum levels of interleukin-1α (IL-1α, 41734), IL-1β (43360), interleukin-6 (IL-6, 41731), interleukin-8 (IL-8, 41716), IL-10 (41736), interleukin-16 (IL-16, 41628), C—X—C motif chemokine 10 (CXCL10, 41570), monocyte chemoattractant protein 1 (MCP-1, 41640), macrophage inflammatory protein 1α (MIP-1α, 41645), interferon gamma (IFN-γ, 41739), TNF-α (41721), tumor necrosis factor-β (TNF-β, 41673), nuclear factor κ-light-chain-enhancer of activated B cells (NF-κB, 43358), 6-keto-prostaglandin F-1α (6-Keto-PGF1α, 41809) and prostaglandin E2 (PGE2, 41609) in rats were determined by the ELISA method using related Elisa Kits (Yuanye Bio-Technology Co. Ltd, Shanghai, China) according to the manufacturer's instructions.
# [1] = test system: factors related to oxidative stress; assay: Factors related to oxidative stress in serum and liver of hyperuricemia mice (ELISA); format: in vivo, Balb/C mice; conditions: for Liver CAT / Liver GSH-PX / Liver MDA / Liver ROS / Liver SOD / Serum CAT / Serum GSH-PX / Serum MDA / Serum ROS / Serum SOD: hyperuricemia mice, mean ± S.D., n=10
# Description: Due to the presence of uricase in mice, a hyperuricemic mouse model was established by using uricase inhibitor and large amounts of purine. Mice were randomly divided into five groups (n=10), including the control group (NC), model group (MC), 20 mg/kg of AL (Shimao Tianjie Pharmaceutical Co. Ltd, Jiangsu, China) group, 10 μg BHA group (10BHA) and 50 μg BHA group (50BHA). Oral administration of AL and intraperitoneal injection of BHA were administered according to the required dose, and all mice were gavage fed 20 g/kg yeast extract powder 12 h prior to the administration of AL and BHA except for NC mice for 8 days. From the 6th to 8th day, 1-h prior to AL and BHA administration, 300 mg/kg of OXO (Sigma, USA) was intraperitoneally injected to all of the mice except those in the control group. At 1 h after the final drug administration, blood was sampled from caudal veins of the mice, serum was separated and their livers were quickly collected (FIG. 3A, E). All samples were stored at −80° C. until assay measurements were performed.
# The levels of reactive oxygen species (ROS, 43355), malondialdehyde (MDA, 43124) glutathione peroxidase (GSH-Px, 43390), superoxide dismutase (SOD, 43125), catalase (CAT, 43356), creatinine (Cr, 43353) and blood urea nitrogen (BUN, 43352) in the serum and livers of mice were determined using ELISA Kits (Yuanye Bio-Technology Co. Ltd, Shanghai, China) according to the manufacturer's instructions.
# hyperuricemic mice = assay: Serum UA in OXO- and yeast extract-induced hyperuricemic mice; format: in vivo, Balb/C mice; conditions: BHA (10 μg and 50 μg intraperitoneal), P<0.05
# Description: Male Balb/C mice (n=50, 8 weeks: 18-22 g), purchased from Yisi Experimental Animal Technology Company Ltd, Jilin, China (SCXK (Ji)-2016-0003). These mice were housed in plastic cages and maintained on a 12-h light/12-h dark cycle (lights on 7:00-19:00 h) under standard laboratory conditions of 55% relative humidity and 23±1° C. They were given standard feed and tap water ad libitum. All experimental procedures were approved by the Animal Ethics Committee of Jilin University (Reference NO. 201605).
# Due to the presence of uricase in mice, a hyperuricemic mouse model was established by using uricase inhibitor and large amounts of purine. Mice were randomly divided into five groups (n=10), including the control group (NC), model group (MC), 20 mg/kg of AL (Shimao Tianjie Pharmaceutical Co. Ltd, Jiangsu, China) group, 10 μg BHA group (10BHA) and 50 μg BHA group (50BHA). Oral administration of AL and intraperitoneal injection of BHA were administered according to the required dose, and all mice were gavage fed 20 g/kg yeast extract powder 12 h prior to the administration of AL and BHA except for NC mice for 8 days. […]
# The serum UA concentrations and XO levels in the serum and liver were determined with a standard diagnostic kit (MAK077, MAK078 Sigma, USA) according to the manufacturer's instructions.
# [2] = 10 μg BHA intra-articular with MSU (10BHA)
# [3] = 50 μg BHA intra-articular with MSU (50BHA)
# [4] = 10 μg BHA intraperitoneal (10BHA)
# [5] = 50 μg BHA intraperitoneal (50BHA)
substance,measurement,setting,value
N-butyrylated HA [BHA],decrease of serum IL-8 compared to rats injected with MSU,"inflammation factors; 10 μg BHA, P<0.05",7.13%
same,decrease of serum MCP-1 compared to rats injected with MSU,"inflammation factors; 10 μg BHA, P<0.05",7.76%
same,increase of serum IL-10 compared to rats injected with MSU,"inflammation factors; 10 μg BHA, P<0.05",9.49%
same,decrease of serum IFN-γ compared to rats injected with MSU,"inflammation factors; 50 μg BHA, P<0.05",33.18%
same,decrease of serum IL-1β compared to rats injected with MSU,"inflammation factors; 50 μg BHA, P<0.05",5.56%
same,decrease of serum IL-8 compared to rats injected with MSU,"inflammation factors; 50 μg BHA, P<0.05",6.55%
same,decrease of serum MCP-1 compared to rats injected with MSU,"inflammation factors; 50 μg BHA, P<0.05",15.58%
same,6-Keto-PGF1α,inflammation factors; [2],257 ± 20.8
same,IFN-γ,inflammation factors; [2],107.4 ± 7.6 pg/mL
same,IL-1α,inflammation factors; [2],71.5 ± 11.2 pg/mL
same,IL-1β,inflammation factors; [2],19.6 ± 1.6 pg/mL
same,IL-6,inflammation factors; [2],78.5 ± 5.6 pg/mL
same,IL-8,inflammation factors; [2],213.8 ± 11.4 pg/mL
same,IL-10,inflammation factors; [2],12 ± 0.9 pg/mL
same,IL-16,inflammation factors; [2],399.3 ± 14.8 pg/mL
same,IP-10,inflammation factors; [2],154.3 ± 18^ pg/mL
same,MCP-1,inflammation factors; [2],321.2 ± 20.5 pg/mL
same,MIP-1α,inflammation factors; [2],282.8 ± 23.6 pg/mL
same,NF-κB,inflammation factors; [2],589.8 ± 104. pg/mL
same,PGE2,inflammation factors; [2],209.7 ± 17.3 pg/mL
same,TNF-α,inflammation factors; [2],155.9 ± 11.4 pg/mL
same,TNF-β,inflammation factors; [2],139.1 ± 25.7 pg/mL
same,6-Keto-PGF1α,inflammation factors; [3],262 ± 10.8
same,IFN-γ,inflammation factors; [3],75.4 ± 31.7 pg/mL
same,IL-1α,inflammation factors; [3],77.4 ± 13 pg/mL
same,IL-1β,inflammation factors; [3],18.8 ± 0.8 pg/mL
same,IL-6,inflammation factors; [3],75 ± 5.3 pg/mL
same,IL-8,inflammation factors; [3],216.6 ± 11.6 pg/mL
same,IL-10,inflammation factors; [3],11.6 ± 1.1 pg/mL
same,IL-16,inflammation factors; [3],401.2 ± 25.1 pg/mL
same,IP-10,inflammation factors; [3],150.5 ± 7.5 pg/mL
same,MCP-1,inflammation factors; [3],292 ± 27.8 pg/mL
same,MIP-1α,inflammation factors; [3],283.9 ± 12.7 pg/mL
same,NF-κB,inflammation factors; [3],513 ± 74.1 pg/mL
same,PGE2,inflammation factors; [3],193.2 ± 12.7 pg/mL
same,TNF-α,inflammation factors; [3],152.7 ± 12.1 pg/mL
same,TNF-β,inflammation factors; [3],129 ± 21.9 pg/mL
same,decrease of ROS levels in the liver,"[1]; 10 μg BHA, P<0.01",8.04%
same,decrease of ROS levels in the serum,"[1]; 10 μg BHA, P<0.01",14.87%
same,improvement of liver SOD,"[1]; 10 μg BHA, P<0.05",12.77%
same,decrease of ROS levels in the liver,"[1]; 50 μg BHA, P<0.05",9.59%
same,decrease of ROS levels in the serum,"[1]; 50 μg BHA, P<0.05",14.63%
same,improvement of liver SOD,"[1]; 50 μg BHA, P<0.05",13.69%
same,Liver CAT,[1]; [4],13.1 ± 1.4 U/mg
same,Liver GSH-PX,[1]; [4],78.8 ± 8^ U/mg
same,Liver MDA,[1]; [4],3.4 ± 0.2 nmol/mg
same,Liver ROS,[1]; [4],70.8 ± 3.7 U/mg
same,Liver SOD,[1]; [4],56.8 ± 5.8 U/mg
same,Serum CAT,[1]; [4],43.3 ± 4.6 U/mL
same,Serum GSH-PX,[1]; [4],246.8 ± 10.2 U/mL
same,Serum MDA,[1]; [4],10.4 ± 0.5 nmol/mL
same,Serum ROS,[1]; [4],226.6 ± 17.9 U/mL
same,Serum SOD,[1]; [4],166.6 ± 11.8 U/mL
same,Liver CAT,[1]; [5],14.1 ± 1.5 U/mg
same,Liver GSH-PX,[1]; [5],77.9 ± 7.3 U/mg
same,Liver MDA,[1]; [5],3.5 ± 0.2 nmol/mg
same,Liver ROS,[1]; [5],69.6 ± 7.1 U/mg
same,Liver SOD,[1]; [5],57.2 ± 4.4 U/mg
same,Serum CAT,[1]; [5],41.5 ± 6^ U/mL
same,Serum GSH-PX,[1]; [5],231.4 ± 13.3 U/mL
same,Serum MDA,[1]; [5],10.5 ± 0.3 nmol/mL
same,Serum ROS,[1]; [5],227.2 ± 17.9 U/mL
same,Serum SOD,[1]; [5],161.2 ± 8 U/mL
same,serum UA levels,hyperuricemic mice,significantly suppressed serum UA levels
